Laboratory results published in patent US20210341482A1, “CANCER BIOMARKERS” (NOTTINGHAM UNIVERSITY HOSPITALS NHS TRUST, priority 2018, published 2021).

Legend:
[1] = test system: ER+ early stage breast cancer; experiment: Distant relapse risk after adjuvant systemic therapy, multicentre adjuvant therapy cohort stratified by SPAG5 mRNA; type: in vivo, human
Source text: A) Breast Cancer—Assessment Death and Distant Relapse Risks after Surgery and Receiving Adjuvant Systemic Therapy if Eligible in Early Stage Breast Cancer (i.e. Examples 26 to 37, 45, 49, 50, 53, 54 and 57)
The inventors evaluated the prognostic utility of SPAG5-mRNA expression in a large combined breast cancer (BC) cohort which was sourced from 15 publically-available, global datasets (n=3538) using the following access numbers.
All the databases had been downloaded and processed. The gene expression data were converted to a common scale (median equal to 0 and standard deviation equal to 1) in order to merge all of the studies data and create combined cohorts. Each sample in the data was standardised to a mean of 0 and standard deviation of 1. Then the data was median centred for each gene whereby median of each gene is 0.
SPAG5 gene expression data of each database were converted to a common scale (median equal to 0 and standard deviation equal to 1) in order to merge all of the studies data that used the same platform and create combined cohorts. To convert to a common scale each sample in the data was standardised to a mean of 0 and standard deviation of 1. Then the data was median centred for each gene whereby median of each gene is 0. Databases using same platform have been merged and the median expression was calculated. The median expression of SPAG5 transcript for each platform has been calculated and values equal to or higher than the median coded as +1 (overexpression). Values of less than the median have been coded 0 or low SPAG5.

[2] = test system: SPAG5 mRNA; experiment: SPAG5 mRNA expression change and clinical response during preoperative endocrine therapy (letrozole); type: in vivo, human
Source text: B) Breast Cancer—Assessment of the Clinical Dynamic Response after Receiving Preoperative Endocrine Therapy (Aromatase Inhibitor) (i.e. Example 38)
The association between SPAG5 mRNA expression and clinical response after receiving preoperative therapy has been analysed in a total of 101 patients from a consecutive series of 255 postmenopausal women who presented to Western General Hospital in Edinburgh with large primary histologically confirmed estrogen receptor (ER)-rich (Allred scores 6 to 8) invasive breast cancer and who were recruited between 2003 and 2011 fulfilled the requirements to be included in this. All patients gave informed consent and the study was approved by the local regional ethics committee (2001/8/80 and 2001/8/81). Patients were treated with letrozole (Femara, 2.5 mg; Novartis Pharma AG, Basel, Switzerland) daily for at least 3 months. The clinical response was assessed by three-dimensional ultrasound measurements using dynamic (serial) changes in tumor volumes. Tumours with <50% reduction in volume were classified as non-responders. SPAG5 mRNA expression data were retrieved from the publically available gene expression microarray datasets at the National Center for Biotechnology Information Gene Expression Omnibus under access numbers (GSE59515, GSE55374, and GSE20181).
For “GSE59515” and “GSE55374” cases, RNA was extracted, labelled, and hybridized to HumanHT-12 v4 Illumina BeadChips (GPL10558) according to the standard protocol for NuGEN amplified samples. For GSE20181 cases, samples were processed on Affymetrix U133A gene chip (GPL96). There were no significant differences in clinical or pathologic features of patients or tumours from the three datasets. Illumina and Affymetrix data were independently normalized (quantile using the lumi Bioconductor package2l and the log scale robust multi-array analysis expression measure was implemented with the affy packages) and mapped to Ensembl gene identifiers using re-annotation and mapping for oligonucleotide array technologies and custom chip definition file, respectively, before detection filtering and batch correction with cross-platform normalization. Biopsies were taken from the same subjects at three time-points: pre-treatment, after 10-14 days Letrozol (2.5 mg/day, oral), and after 90 days Letrozol (2.5 mg/day, oral).

Row | SMILES | distant relapse risk ([1]; ER+ LN+ early stage BC, SPAG5+ mRNA overexpression) [%] | distant relapse risk ([1]; ER+ LN+ early stage BC, low SPAG5 mRNA) [%] | distant relapse risk ([1]; ER+ LN- early stage BC, SPAG5+ mRNA overexpression) [%] | distant relapse risk ([1]; ER+ LN- early stage BC, low SPAG5 mRNA) [%] | cases with SPAG5 mRNA significantly downregulated vs pre-treatment biopsy ([2]; ER+ tumours, after 2 weeks) [%] | change of SPAG5 mRNA expression vs biopsy after 2 weeks ([2]; ER+ tumours, after 12 weeks) | change of SPAG5 mRNA expression vs pre-treatment biopsy ([2]; non-responding tumours, after 2 or 12 weeks) | responding tumours with significant down-regulation of SPAG5 mRNA ([2]; tumour volume reduced by 50%, after 2 weeks) [%]
1 | CC/C(=C(\c1ccccc1)c1ccc(OCCN(C)C)cc1)c1ccccc1 [Tamoxifen] | 46 | 22 | 33 | 13 | – | – | – | –
2 | N#Cc1ccc(C(c2ccc(C#N)cc2)n2cncn2)cc1 [pre-operative endocrine therapy, letrozole] | – | – | – | – | 72 | significant further reduction | no significant change | 76
